From patent US7759350B2, “Pyrimidine carboxamides” (Orchid Research Laboratories Ltd., priority 2005, dated 2010)

Key:
MCF-7 = assay: Anti-cancer screen (MTT), MCF-7; format: cell-based
Procedure: [The source words this procedure for another cell line and reports this cell line under the same test.] (§1) Experimental drugs are screened for anti-cancer activity in three cell lines for their GI50, TGI and LC50 values (using five concentrations for each compound). The cell lines are maintained in DMEM containing 10% fetal bovine serum. 96 well microtiter plates are inoculated with cells in 100 μL for 24 h at 37° C., 5% CO2, 95% air and 100% relative humidity. 5000 HCT116 cells/well, 5000 NCIH460 cells/well, 10000 U251 cells/well and 5000 MDAMB231 cells/well are plated. A separate plate with these cell lines is also inoculated to determine cell viability before the addition of the compounds (T0).
(§2) Following 24 hours incubation, experimental drugs are added to the 96 well plates. Each plate contains one of the above cell lines and the following in triplicate: five different concentrations (0.01, 0.1, 1, 10 and 100 μM) of four different compounds, appropriate dilutions of a cytotoxic standard and control (untreated) wells. Compounds are dissolved in dimethylsulfoxide (DMSO) to make 20 mM stock solutions on the day of drug addition and frozen at −20° C. Serial dilutions of these 20 mM stock solutions are made in complete growth medium such that 100 μL of these drug solutions in medium, of final concentrations equaling 0.01, 0.1, 1, 10 and 100 μM can be added to the cells in triplicate. Standard drugs whose anti-cancer activity has been well documented and which are regularly used are doxorubicin and SAHA.
(§3) Cells are incubated with compounds for 48 hours followed by the addition of 10 μL 3-(4,5-Dimethyl-2-thiazolyl)-2,5-diphenyl-2H-tetrazolium (MTT) solution per well and a subsequent incubation at 37° C., 5% CO2, 95% air and 100% relative humidity, protected from light. After 4 hours, well contents are aspirated carefully followed by addition of 150 μL DMSO per well. Plates are agitated to ensure solution of the formazan crystals in dimethylsulphoxide and absorbance read at 570 nm.
(§4) Percent growth is calculated for each compound's concentration relative to the control and zero measurement wells (To; viability right before compound addition). […]

SF-268 = assay: Anti-cancer screen (MTT), SF-268; format: cell-based
Procedure: [The source words this procedure for another cell line and reports this cell line under the same test.] as §1, §2, §3, §4

IL-1β = assay: In vitro measurement of IL-1β in human PBMC; format: cell-based; settings: Conc. 0.1 μM, LPS
Procedure: (§5) In vitro Measurement of Interleukin-6 (IL-6) & Interleukin-1β (IL1β)
(§6) This assay determines the effect of test compounds on the production of IL-6 and IL1β in human PBMC (Physiol. Res. 52: 593-598, 2003). Compounds were tested for their ability to inhibit the activity of IL-6 and IL1β in human PBMC. PBMC were isolated from blood using BD Vacutainer CPT™ Cell preparation tube (BD Bio Science) and suspended in RPMI medium. The test compounds were preincubated with PBMC (0.5 million/incubation well) for 15 minutes at 37° C. and then stimulated with Lipopolysaccharide (Escherichia coli: B4; 1 μg/ml) for 18 hours at 37° C. in 5% CO2. The levels of IL-6 and IL1β in cell culture medium were estimated using enzyme linked Immunosorbent assay performed in a 96 well format as per the procedure of the manufacturer (R&D Systems, Inc. 614 McKinley Place Nebr., Minneapolis, Minn. 55413, USA).

[1] = system: Carrageenan induced paw edema in rat; assay: Carrageenan induced paw edema test in rat; format: in vivo; settings: 5 mg/kg oral; male wistar rats; 3 hours after carrageenan
Procedure: Carrageenan Induced Paw Edema Test in Rat
The carrageenan paw edema test was performed as described by Winter et al (Proc. Soc. Exp. Biol. Med, 111, 544, 1962). Male wistar rats were selected with body weights equivalent within each group. The rats were fasted for eighteen hours with free access to water. The rats were dosed orally with the test compound suspended in vehicle containing 0.25% carboxymethylcellulose and 0.5% Tween 80. The control rats were administered with vehicle alone. After an hour, the rats were injected with 0.1 ml of 1% Carrageenan solution in 0.9% saline into the sub-plantar surface of the right hind paw. Paw volume was measured using digital plethysmograph before and after 3 hours of carrageenan injection. The average of foot swelling in drug treated animals was compared with that of control animals. Anti-inflammatory activity was expressed as the percentage inhibition of edema compared with control group [Arzneim-Forsch/Drug Res., 43 (I), 1,44-50,1993; Otterness and Bliven, Laboratory Models for Testing NSAIDs, In Non-Steroidal Anti-Inflammatory Drugs, (J. Lombardino, ed. 1985)].

NCI-H460 = assay: Anti-cancer screen (MTT), NCI-H460; format: cell-based
Procedure: as §1
Following 24 hours incubation, experimental drugs are added to the 96 well plates. […] Compounds are dissolved in dimethylsulfoxide (DMSO) to make 20 mM stock solutions on the day of drug addition and frozen at −20° C. […] Standard drugs whose anti-cancer activity has been well documented and which are regularly used are doxorubicin and SAHA.
as §3
Percent growth is calculated for each compound's concentration relative to the control and zero measurement wells (To; viability right before compound addition). If a test well's O.D. value is greater than the To measurement for that cell line % Growth=(test−zero)/(control−zero)×100
If a test well's O.D. value is lower than the T0 measurement for that cell line, […]

IL-6 = assay: In vitro measurement of IL-6 in human PBMC; format: cell-based; settings: Conc. 0.1 μM, LPS
Procedure: as §5, §6

COX-2 = molecular target: T1, COX-2 (Homo sapiens, UniProt P35354); assay: Human whole blood assay, COX-2 inhibition (PGE2 after LPS); format: cell-based; settings: LPS stimulated
T1 construct: Fresh blood was collected in tubes containing sodium heparin by vein puncture from healthy male volunteers; endogenous in cells; host or cells: human whole blood from healthy male volunteers, stimulated with LPS
T1 sequence (P35354 18-604): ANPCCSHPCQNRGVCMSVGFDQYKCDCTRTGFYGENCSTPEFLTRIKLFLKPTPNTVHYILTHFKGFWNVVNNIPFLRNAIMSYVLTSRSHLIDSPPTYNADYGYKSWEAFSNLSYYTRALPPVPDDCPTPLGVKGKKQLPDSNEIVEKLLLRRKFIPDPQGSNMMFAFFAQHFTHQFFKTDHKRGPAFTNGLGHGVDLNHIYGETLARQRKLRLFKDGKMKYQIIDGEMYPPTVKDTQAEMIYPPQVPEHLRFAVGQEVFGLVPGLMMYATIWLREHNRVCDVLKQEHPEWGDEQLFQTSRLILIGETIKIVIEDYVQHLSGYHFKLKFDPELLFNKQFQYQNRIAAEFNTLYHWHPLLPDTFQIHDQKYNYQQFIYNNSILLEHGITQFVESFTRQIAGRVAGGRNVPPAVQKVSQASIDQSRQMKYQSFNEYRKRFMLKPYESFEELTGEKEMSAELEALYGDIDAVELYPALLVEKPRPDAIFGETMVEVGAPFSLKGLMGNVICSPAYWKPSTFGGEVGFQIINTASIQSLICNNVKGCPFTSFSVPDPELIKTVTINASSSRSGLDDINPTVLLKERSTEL
Procedure: Human whole blood provides a protein and cell rich milieu appropriate for the study of biochemical efficacy of anti-inflammatory compounds such as selective COX-2 inhibitors. […] This is correlating with the observation that COX-2 inhibitors have no effect on prostaglandin E2 (PGE2) production in normal blood. These inhibitors were active only after incubation of human blood with lipopolysaccharide (LPS), which induces COX-2 production in the blood.
Fresh blood was collected in tubes containing sodium heparin by vein puncture from healthy male volunteers. […] Then test compounds (at various concentrations) or vehicle were added to blood. After that blood was stimulated with LPS B: 4 (10 μg/ml) and incubated for another 18 hours at 37° C. water bath. After which the blood was centrifuged, plasma was separated and stored at −80° C. (J. Pharmacol. Exp. Ther, 271, 1705, 1994; Proc. Natl. Acad. Sci. USA., 96, 7563, 1999). The plasma was assayed for PGE2 using Cayman ELISA kit as per the procedure outlined by the manufacturer (Cayman Chemicals, Ann Arbor, USA).

MDAMB-231 = assay: Anti-cancer screen (MTT), MDAMB-231; format: cell-based; settings: Homo sapiens, MDA-MB-231, 48 hours
Procedure: as §1
Following 24 hours incubation, experimental drugs are added to the 96 well plates. […]
as §3, with “After 4 hours, well contents are aspirated carefully followed by addition of 150 μL DMSO per well.” left out
as §4

## CNc1nc(-c2ccc(SC)cc2)nc(SC)c1C(=O)Nc1ccc(C)cc1 [Example 5, 4-(Methylamino)-N-(4-methylphenyl)-6-(methylthio)-2-[4-(methylthio)phenyl]pyrimidine-5-carboxamide]
MCF-7; Conc. 50 μM
  Percentage growth Breast MCF-7: 160%
SF-268; Conc. 50 μM
  Percentage growth CNS SF-268: 106%
IL-1β
  IL-1β Inhibition (%): Not active
[1]
  Inhibition of edema (%) at 5 mg/kg: 53.07%
NCI-H460; Conc. 50 μM
  Percentage growth Lung NCI-H460: 48%
IL-6
  inhibition at 0.1 µM: 14.9%
COX-2; Conc. 0.25 μM
  inhibition at 0.25 µM: 36.8%

## CNc1nc(-c2ccc(SC)cc2)nc(SC)c1C(=O)Nc1ccc(C)c(C)c1 [Example 9, N-(3,4-Dimethylphenyl)-4-(methylamino)-6-(methylthio)-2-[4-(methylthio)phenyl]pyrimidine-5-carboxamide]
MCF-7; Conc. 100 μM
  Percentage growth Breast MCF-7: 6%
SF-268; Conc. 100 μM
  Percentage growth CNS SF-268: 5%
NCI-H460; Conc. 100 μM
  Percentage growth Lung NCI-H460: 0%
COX-2; Conc. 10 μM
  inhibition at 10 µM: 29.2%

## CNc1nc(-c2ccncc2)nc(SC)c1C(=O)Nc1ccc(C)c(C)c1 [Example 25, N-(3,4-Dimethylphenyl)-4-(methylamino)-6-(methylthio)-2-pyridin-4-ylpyrimidine-5-carboxamide]
MDAMB-231
  GI50: 100 nM
NCI-H460; Homo sapiens, NCI-H460, 48 hours, MTT
  GI50: 5.5 µM
